Paper PMC10922772 (ACS infectious diseases, 2024)
Where “and” joins values, the source holds several entries; their conditions need not be identical. Equal entries are not always repeated.

Biological target: SARS-CoV-2 Mpro (Severe acute respiratory syndrome coronavirus 2, UniProt P0DTD1)
Test: biochemical
Conditions: for IC50: IC50, enzyme 100 nM, substrate 20 μM, 10 min preincubation, pH 6.5; for inhibition at 20 µM: read-out: % inhibition at 20 μM; for fold less active than compound 13: IC50 compared with compound 13; for fold less active than the other (more active) diastereomer: between the two diastereomers of the same compound

Row | Structure (SMILES) | IC50 | inhibition at 20 µM [%] | other results
1 | CC(C)(C)NC(=O)C(c1cccnc1)N(C(=O)CCl)c1cccc(NC(=O)C(Cl)Cl)c1 (stereo not drawn) [Compound 19, N-(tert-Butyl)-2-(2-chloro-N-(3-(2,2-dichloroacetamido)phenyl)acetamido)-2-(pyridin-3-yl)acetamide] | 2200 ± 510 nM | – | –
2 | CC(C)(C)NC(=O)C(c1cccnc1)N(C(=O)C(=O)Cc1ccccc1)c1ccc(C(C)(C)C)cc1 (stereo not drawn) [Compound 31, N-(4-(tert-Butyl)phenyl)-N-(2-(tert-butylamino)-2-oxo-1-(pyridin-3-yl)ethyl)-2-oxo-3-phenylpropanamide] | – | 0 | inhibitory activity against Mpro (in words): inactive
3 | CC(C)(C)c1ccc(N(C(=O)CCl)C(C(=O)NC2CCCCC2)c2cccnc2)cc1 (stereo not drawn) [Compound 26, N-(4-(tert-Butyl)phenyl)-2-chloro-N-(2-(cyclohexylamino)-2-oxo-1-(pyridin-3-yl)ethyl)acetamide] | 490 ± 220 nM | – | –
4 | CC(C)(C)NC(=O)C(c1cccnc1)N(C(=O)C1CO1)c1ccc(C(C)(C)C)cc1 [(R, R)- and (S, S)-38, N-(4-(tert-Butyl)phenyl)-N-(2-(tert-butylamino)-2-oxo-1-(pyridin-3-yl)ethyl)oxirane-2-carboxamide] | – | 21 | –
5 | O=C(Nc1ccc(N(C(=O)c2ccco2)C(C(=O)NCc2ccccc2)c2cccnc2)cc1)C(Cl)Cl (stereo not drawn) [Compound 6, N-(2-(Benzylamino)-2-oxo-1-(pyridin-3-yl)ethyl)-N-(4-(2,2-dichloroacetamido)phenyl)furan-2-carboxamide] | – | 41 | –
6 | O=C(CCl)Nc1ccc(N(C(=O)c2ccco2)C(C(=O)NCc2ccccc2)c2cccnc2)cc1 (stereo not drawn) [Compound 5, N-(2-(Benzylamino)-2-oxo-1-(pyridin-3-yl)ethyl)-N-(4-(2-chloroacetamido)phenyl)furan-2-carboxamide] | ~20000 nM | 47 | –
7 | CC1(C(=O)N(c2ccc(C(C)(C)C)cc2)C(C(=O)NC2CCCCC2)c2cccnc2)CO1 (stereo not drawn) [Compound 37, N-(4-(tert-Butyl)phenyl)-N-(2-(cyclohexylamino)-2-oxo-1-(pyridin-3-yl)ethyl)-2-methyloxirane-2-carboxamide] | – | 28 | activity reduction vs. compound 30 (compared with more active diastereomer of 30): > 25 fold
8 | CC(C)(C)NC(=O)C(c1cccnc1)N(C(=O)C1CO1)c1ccc(C(C)(C)C)cc1 [(R, S)- and (S, R)-38, N-(4-(tert-Butyl)phenyl)-N-(2-(tert-butylamino)-2-oxo-1-(pyridin-3-yl)ethyl)oxirane-2-carboxamide] | 1200 nM and 1240 nM | – | –
9 | CC(C)(C)NC(=O)C(c1cccnc1)N(C(=O)CCl)c1ccc(NC(=O)C(Cl)Cl)cc1 (stereo not drawn) [Compound 16, N-(tert-Butyl)-2-(2-chloro-N-(4-(2,2-dichloroacetamido)phenyl)acetamido)-2-(pyridin-3-yl)acetamide] | 3600 ± 190 nM | – | fold less active than compound 13: ~ 5 ×
10 | CC(=O)OCC(=O)N(c1ccc(C(C)(C)C)cc1)C(C(=O)NC(C)(C)C)c1cccnc1 (stereo not drawn) [Compound 33, 2-((4-(tert-Butyl)phenyl)(2-(tert-butylamino)-2-oxo-1-(pyridin-3-yl)ethyl)amino)-2-oxoethyl acetate] | – | 0 | –
11 | CC(C)(C)NC(=O)C(c1cccnc1)N(C(=O)CCl)c1ccc(NC(=O)CCl)cc1 (stereo not drawn) [Compound 15, N-(tert-Butyl)-2-(2-chloro-N-(4-(2-chloroacetamido)phenyl)acetamido)-2-(pyridin-3-yl)acetamide] | 3200 ± 790 nM | – | fold less active than compound 13: ~ 5 ×
12 | C=Cc1ccc(N(C(=O)c2ccco2)C(C(=O)NCc2ccccc2)c2cccnc2)cc1 (stereo not drawn) [Compound 3, N-(2-(Benzylamino)-2-oxo-1-(pyridin-3-yl)ethyl)-N-(4-vinylphenyl)furan-2-carboxamide] | – | 26 | –
13 | CC1OC1C(=O)N(c1ccc(C(C)(C)C)cc1)C(C(=O)NC(C)(C)C)c1cccnc1 [(R, R, S)- and (S, S, R)-39, N-(4-(tert-Butyl)phenyl)-N-(2-(tert-butylamino)-2-oxo-1-(pyridin-3-yl)ethyl)-3-methyloxirane-2-carboxamide] | 5320 ± 640 nM | – | –
14 | CCCCNC(=O)C(c1cccnc1)N(C(=O)CCl)c1ccc(C(C)(C)C)cc1 (stereo not drawn) [Compound 24, N-Butyl-2-(N-(4-(tert-butyl)phenyl)-2-chloroacetamido)-2-(pyridin-3-yl)acetamide] | 2400 ± 300 nM | – | –
15 | Nc1ccc(N(C(=O)c2ccco2)C(C(=O)NCc2ccccc2)c2cccnc2)cc1 (stereo not drawn) [Compound 11, N-(4-Aminophenyl)-N-(2-(benzylamino)-2-oxo-1-(pyridin-3-yl)ethyl)furan-2-carboxamide] | – | 0 | –
16 | CC(C)(C)NC(=O)C(c1cccnc1)N(C(=O)CCl)c1ccc(CC2CO2)cc1 (stereo not drawn) [Compound 17, N-(tert-Butyl)-2-(2-chloro-N-(4-(oxiran-2-ylmethyl)phenyl)acetamido)-2-(pyridin-3-yl)acetamide] | 3600 ± 300 nM | – | –
17 | CC(C)(C)NC(=O)C(c1cccnc1)N(C(=O)c1ccco1)c1ccc(CC2CO2)cc1 (stereo not drawn) [Compound 4, N-(2-(tert-Butylamino)-2-oxo-1-(pyridin-3-yl)ethyl)-N-(4-(oxiran-2-ylmethyl)phenyl)furan-2-carboxamide] | – | 10 | –

Row | Structure (SMILES) | IC50 | inhibition at 20 µM [%] | other results
18 | Nc1cccc(N(C(=O)c2ccco2)C(C(=O)NCc2ccccc2)c2cccnc2)c1 (stereo not drawn) [Compound 12, N-(3-Aminophenyl)-N-(2-(benzylamino)-2-oxo-1-(pyridin-3-yl)ethyl)furan-2-carboxamide] | – | 18 | –
19 | CC(C)(C)c1ccc(N(C(=O)CC#N)C(C(=O)NC2CCCCC2)c2cccnc2)cc1 (stereo not drawn) [Compound 34, N-(4-(tert-Butyl)phenyl)-2-cyano-N-(2-(cyclohexylamino)-2-oxo-1-(pyridin-3-yl)ethyl)acetamide] | – | 28 | –
20 | O=C(CCl)Nc1cccc(N(C(=O)c2ccco2)C(C(=O)NCc2ccccc2)c2cccnc2)c1 (stereo not drawn) [Compound 8, N-(2-(Benzylamino)-2-oxo-1-(pyridin-3-yl)ethyl)-N-(3-(2-chloroacetamido)phenyl)furan-2-carboxamide] | ~20000 nM | 47 | –
21 | CC(C)(C)NC(=O)C(c1cccnc1)N(C(=O)CCl)c1ccc(N)cc1 (stereo not drawn) [Compound 20, N-(4-Aminophenyl)-N-(2-(tert-butylamino)-2-oxo-1-(pyridin-3-yl)ethyl)-2-chloroacetamide] | – | 12 | –
22 | COc1ccc(N(C(=O)CCl)C(C(=O)NC(C)(C)C)c2cccnc2)cc1 (stereo not drawn) [Compound 22, N-(tert-Butyl)-2-(2-chloro-N-(4-methoxyphenyl)acetamido)-2-(pyridin-3-yl)acetamide] | 1600 nM and 1610 nM | – | –
23 | CC1OC1C(=O)N(c1ccc(C(C)(C)C)cc1)C(C(=O)NC1CCCCC1)c1cccnc1 [(R, R, S)- and (S, S, R)-35, N-(4-(tert-Butyl)phenyl)-N-(2-(cyclohexylamino)-2-oxo-1-(pyridin-3-yl)ethyl)-3-methyloxirane-2-carboxamide] | – | 42 | fold less active than the other (more active) diastereomer: ~ 10 ×
24 | CC(C)(C)c1ccc(N(C(=O)C2CO2)C(C(=O)NCc2ccccc2)c2cccnc2)cc1 [(R, S)- and (S, R)-42, N-(2-(Benzylamino)-2-oxo-1-(pyridin-3-yl)ethyl)-N-(4-(tert-butyl)phenyl)oxirane-2-carboxamide] | 1600 ± 320 nM | – | –
25 | CC(C)(C)NC(=O)C(c1cccnc1)N(C(=O)CCl)c1ccc(-c2ccccc2)cc1 (stereo not drawn) [Compound 14, N-([1,1’-Biphenyl]-4-yl)-N-(2-(tert-butylamino)-2-oxo-1-(pyridin-3-yl)ethyl)-2-chloroacetamide] | 950 ± 40 nM | – | –
26 | CC(C)(C)c1ccc(N(C(=O)C2CO2)C(C(=O)NC2CCCCC2)c2cccnc2)cc1 [(R, R)- and (S, S)-30, N-(4-(tert-Butyl)phenyl)-N-(2-(cyclohexylamino)-2-oxo-1-(pyridin-3-yl)ethyl)oxirane-2-carboxamide] | 9900 ± 1600 nM | – | fold less active than the other (more active) diastereomer: 13 ×
27 | CC(C)(C)NC(=O)C(c1cccnc1)N(C(=O)CCl)c1cccc(N)c1 (stereo not drawn) [Compound 21, N-(3-Aminophenyl)-N-(2-(tert-butylamino)-2-oxo-1-(pyridin-3-yl)ethyl)-2-chloroacetamide] | – | 33 | –
28 | O=C(NCc1ccccc1)C(c1cccnc1)N(C(=O)c1ccco1)c1ccc(C2CO2)cc1 (stereo not drawn) [Compound 2, N-(2-(Benzylamino)-2-oxo-1-(pyridin-3-yl)ethyl)-N-(4-(oxiran-2-yl)phenyl)furan-2-carboxamide] | – | 18 | –
29 | CC(C)(C)NC(=O)C(c1cccnc1)N(C(=O)CO)c1ccc(C(C)(C)C)cc1 (stereo not drawn) [Compound 32, N-(tert-Butyl)-2-(N-(4-(tert-butyl)phenyl)-2-hydroxyacetamido)-2-(pyridin-3-yl)acetamide] | – | 21 | –
30 | C=CC(=O)Nc1cccc(N(C(=O)c2ccco2)C(C(=O)NCc2ccccc2)c2cccnc2)c1 (stereo not drawn) [Compound 10, N-(3-Acrylamidophenyl)-N-(2-(benzylamino)-2-oxo-1-(pyridin-3-yl)ethyl)furan-2-carboxamide] | – | 5 | –
31 | CC(C)(C)c1ccc(N(C(=O)C2CO2)C(C(=O)NCc2ccccc2)c2cccnc2)cc1 [(R, R)- and (S, S)-42, N-(2-(Benzylamino)-2-oxo-1-(pyridin-3-yl)ethyl)-N-(4-(tert-butyl)phenyl)oxirane-2-carboxamide] | – | 45 | –
32 | CC(C)(C)c1ccc(N(C(=O)CCl)C(C(=O)NCc2ccccc2)c2cccnc2)cc1 (stereo not drawn) [Compound 23, N-Benzyl-2-(N-(4-(tert-butyl)phenyl)-2-chloroacetamido)-2-(pyridin-3-yl)acetamide] | – | 41 | –
33 | CC1OC1C(=O)N(c1ccc(C(C)(C)C)cc1)C(C(=O)NC(C)(C)C)c1cccnc1 [(R, S, R)- and (S, R, S)-39, N-(4-(tert-Butyl)phenyl)-N-(2-(tert-butylamino)-2-oxo-1-(pyridin-3-yl)ethyl)-3-methyloxirane-2-carboxamide] | 4330 ± 320 nM | – | –
34 | C=CC(=O)N(c1ccc(C(C)(C)C)cc1)C(C(=O)NC1CCCCC1)c1cccnc1 (stereo not drawn) [Compound 29, N-(4-(tert-Butyl)phenyl)-N-(2-(cyclohexylamino)-2-oxo-1-(pyridin-3-yl)ethyl)acrylamide] | – | 30 | –
